Data from PMC9804781, “Identification of a Novel Pseudo‐Natural Product Type IV IDO1 Inhibitor Chemotype” (Angewandte Chemie (International Ed. in English), 2022).

Experiments:
[1] = Stability of Apoxidole-1 in Serum; type: in vitro ADME; settings: 400 µM in FBS, 37°C, up to 48 h
Procedure: transparent microplates (UV-STAR®, Greiner AG, AT). Subsequently, absorbance spectra from 250 nm to 550 nm were recorded on the Spark® Multimode Microplate Reader (Tecan, AT).
SKOV-3 cells (1.25 x 10^6 cells/flask) were seeded in two T75 tissue culture flasks and incubated for 24 h prior to addition of 17.6 ng/mL IFN-γ and 10 µM succinylacetone (SA, heme synthesis inhibitor). After 24 h, cells were treated with the compound (C) or DMSO (V, vehicle) for 15 min at 37°C. Cells were detached with trypsin/EDTA and washed thrice in cold PBS after resuspension in cold PBS. C- and V-treated samples were distributed equally into ten tubes each and subjected to heating at different temperatures in the MasterCycler EpGradient S (Eppendorf SE, DE). Afterwards, NP-40 alternative was added to a final concentration of 0.4% (v/v) and cells were lysed by five consecutive freeze/thaw cycles. Soluble fractions were separated from denatured proteins by centrifugation at 100,000 x g and 4°C for 20 min. […]
A truncated version of recombinant human GST-IDO1 (rhIDO1) consisting of amino acids 5-400 of the 403 amino acid-long full-length human IDO1 was expressed in E. coli and purified as published previously.[15] The heme cofactor was released from IDO1 by overnight incubation with 2-mercaptoethanesulfonate (MESNA) as described previously[18] and heme occupancy was determined by UV/Vis spectrophotometry. […]

[2] = molecular target: T1, His-tagged IDO2 (Homo sapiens, UniProt Q6ZQW0); test: IDO2 Activity Assay; type: biochemical; settings: 50 µM; 90 min + 120 min at 30 °C
T1 construct: His; purchased BPS Bioscience 72035 (kit)
T1 sequence (Q6ZQW0 1-407): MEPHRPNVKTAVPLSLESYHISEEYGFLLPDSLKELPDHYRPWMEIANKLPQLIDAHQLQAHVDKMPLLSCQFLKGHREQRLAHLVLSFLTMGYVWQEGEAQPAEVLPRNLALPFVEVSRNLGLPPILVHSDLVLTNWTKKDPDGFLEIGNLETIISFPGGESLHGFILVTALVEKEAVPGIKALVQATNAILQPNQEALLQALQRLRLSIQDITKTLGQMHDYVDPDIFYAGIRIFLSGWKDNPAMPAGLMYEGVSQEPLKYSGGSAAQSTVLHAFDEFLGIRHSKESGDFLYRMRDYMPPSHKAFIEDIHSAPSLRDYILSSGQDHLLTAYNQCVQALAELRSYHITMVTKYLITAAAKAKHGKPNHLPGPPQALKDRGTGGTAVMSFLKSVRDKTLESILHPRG
Procedure: Inhibition of indoleamine 2,3-dioxygenase 2 (IDO2) was tested using the Universal IDO1/IDO2/TDO Inhibitor Screening Assay Kit (cat# 72035, BPS Bioscience, US). 10 µg His-tagged IDO2 in IDO2 Assay Buffer was incubated with Complete IDO2 Reaction Solution (1% (v/v) component 2 in component 1) and 50 µM Test Inhibitor (0.5% (v/v) DMSO) for 90 min at 30°C with slow shaking in the dark prior to initiation of the reaction by addition of 20% (v/v) IDO2 Substrate. Samples were incubated for 120 min at 30°C with slow shaking in the dark. Afterwards, absorbance at 321 nm was recorded on the Spark® Multimode Microplate Reader (Tecan, AT), all values were subtracted by the background and normalized to the DMSO control.

[3] = molecular target: IDO1 (Homo sapiens, UniProt P14902); test: In-Cell CETSA for IDO1 in SKOV-3 cells; type: cell-based; parameters: endogenous in cells; host or cells: SKOV-3 (IFN-γ induced); settings: 15 min
Chain of IDO1 (P14902 whole entry): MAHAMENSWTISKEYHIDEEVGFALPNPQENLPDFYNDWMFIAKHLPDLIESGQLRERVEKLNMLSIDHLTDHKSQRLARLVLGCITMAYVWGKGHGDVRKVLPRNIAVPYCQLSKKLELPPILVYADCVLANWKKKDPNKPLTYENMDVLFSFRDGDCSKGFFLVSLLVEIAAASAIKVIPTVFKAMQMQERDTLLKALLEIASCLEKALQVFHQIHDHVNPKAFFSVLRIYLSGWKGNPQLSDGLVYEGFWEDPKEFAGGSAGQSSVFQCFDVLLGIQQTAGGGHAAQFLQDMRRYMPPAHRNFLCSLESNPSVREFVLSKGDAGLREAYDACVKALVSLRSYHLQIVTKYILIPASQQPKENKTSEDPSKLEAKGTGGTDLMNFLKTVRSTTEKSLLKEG
Procedure: SKOV-3 cells (1.25 x 10^6 cells/flask) were seeded in two T75 tissue culture flasks and incubated for 24 h prior to addition of 17.6 ng/mL IFN-γ and 10 µM succinylacetone (SA, heme synthesis inhibitor). After 24 h, cells were treated with the compound (C) or DMSO (V, vehicle) for 15 min at 37°C. Cells were detached with trypsin/EDTA and washed thrice in cold PBS after resuspension in cold PBS. C- and V-treated samples were distributed equally into ten tubes each and subjected to heating at different temperatures in the MasterCycler EpGradient S (Eppendorf SE, DE). Afterwards, NP-40 alternative was added to a final concentration of 0.4% (v/v) and cells were lysed by five consecutive freeze/thaw cycles. Soluble fractions were separated from denatured proteins by centrifugation at 100,000 x g and 4°C for 20 min. Supernatants were transferred to new tubes and subjected to immunoblot analysis.

- integrity of the compound in serum [1]: confirmed
- inhibition of IDO2 (result in words) [2]: did not inhibit
- CETSA shift in Tm of IDO1 (result in words) ([3]; IFN-γ 24 h, 50 μM, no succinylacetone): did not lead to a shift
- ΔTm at 30 µM ([3]; SK-OV-3, IFN-γ and 10 μM succinylacetone 24 h, 30 μM, read-out: CETSA ΔTm of apo-IDO1): 7.9 ± 0.6 °C
SMILES: CCOC(=O)C1=CC[C@](C(=O)OC)(c2cc3ccccc3n2C)N(S(=O)(=O)c2ccc(C)cc2)[C@@H]1C(=O)OC(C)(C)C [Compound 3d]
